Reference: patent US5292737A, “N,N'-bis(sulfonamido)-2-amino-4-iminonaphthalen-1-ones and N,N'-bis(amido)-2-amino-4-iminonaphthalen-1-ones” (Sphinx Pharmaceuticals Corporation, priority 1992, dated 1994)
Where two headings read alike, the source gives them in different places.

Key:
human neutrophils = assay: Neutrophil Superoxide Anion (O2) Release Assay, PMA-stimulated; assay type: cell-based; details: PMA-stimulated human neutrophils, read-out: Neutrophil Superoxide Release IC50
Description: Phorbol-12,13-myristate acetate (PMA) stimulates O2 production in human neutrophils which in turn reduces cytochrome C. Reducing cytochrome C increases absorbance and the change in optical density (OD) is proportional to the amount of O2 produced by PMA stimulation. Inhibition is expressed as an IC50 value and is the amount of test compound that will inhibit fifty percent of the PMA-stimulated respiratory outburst, i.e. O2^31 production (Lherer et al. (1981) J. Clinical lnvest. 68:1314; Roberts et al. (1982) J. Immunological Methods 49:193).
Human donor blood in 0.38% Sodium Citrate was centrifuged for 10 minutes at 160 ×g at room temperature. Platelet-rich plasma was removed leaving the buffy coat and the red cell-enriched fraction. Saline with 0.38% Sodium Citrate was added to this fraction up to the original blood volume. The enriched blood sample was diluted 1:1 (v:v) with 3% dextran T500 (Pharmacia) in normal saline and placed in a 60 cc syringe, inverted over a beaker and allowed to settle 30 minutes at room temperature.
Leukocyte-enriched plasma was removed from the syringe, placed into 50 ml polypropylene conical centrifuge tubes and underlaid with 15-20 ml Lymphocyte Separation Medium (LSM Organon Technica). The tubes were centrifuged for 40 minutes at 500×g at room temperature. The plasma, buffy coat and LSM were aspirated off the pellets which contained red blood cells and neutrophils.
The pellets were vortexed and 10 ml ice-cold 0.2% NaCl was added to lyse the red blood cells while vortexing again for 10 seconds. Ice-cold 1.6% NaCl was added while vortexing for 10 seconds. The cells were combined from multiple tubes, centrifuged 10 min at 400×g at 4° C. This red cell lysis was repeated and the resulting neutrophil pellet was washed once in Reaction HBSS (GIBCO, HBSS with Ca^++ and Mg^++,.238% HEPES, 0.1% dextrose, 0.1% RIA grade bovine serum albumin, PH 7.2). The cells were resuspended in 1/5 the original blood volume with Reaction HBSS, counted and adjusted to 4.0×10^6 cells/ml at 4° C.
Duplicate samples of neutrophils were tested in 12×75 mm polypropylene tubes containing 0.25 ml of the neutrophil suspension. Cytochrome C mix (0.25 ml, 6.0 mg/ml cytochrome C type IV (Sigma) plus 1200 U/ml bovine liver catalase (Sigma) in Reaction HBSS described above) was added. PMA was added at 2×the final concentration in 0.5 ml of Reaction HBSS. PMA final test concentration were 0.0, 0.3, 9.0, 27.0, and 81.0 ng/ml. The tubes were vortexed and incubated for 10 minutes at 37° C. with shaking. After chilling for 5 minutes at 4° C. and centrifuging for 10 minutes at 4° C., 550×g, 0.5 ml of supernatant was removed from each tube. Normal saline (0.5 ml) was added to each 0.5 ml sample of supernatant and the absorbance of each sample was read at 550 nm on a spectrophotometer (Shimadzu). The PMA concentration which gives nearly maximal stimulation of superoxide release was determined.
The test samples of neutrophils were prepared as in the PMA dose response through addition of cytochrome C mix. Then 0.4 ml of Reaction HBSS as a control or test agent at 2.5×final test concentration was added and the tubes were vortexed and incubated for 30 minutes at 37° C. with shaking. PMA (0.1 ml) was added at a 10× concentration of the final concentration determined above. The samples were incubated for 10 minutes at 37° C. with shaking, chilled for 5 minutes at 4° C., and then centrifuged for 5 minutes at 550×g at 4° C. The supernatant (0.5 ml) was diluted with 0.5 ml normal saline as above and the absorbance was then determined at 550 nm. The percent change was calculated as follows: [formula] D-sphingosine (Sigma) used as reference standard.
Human neutrophils were first isolated according to Lherer et al. ((1981) J. Clinical Invest. 68:1314) and then tested for stimulation of superoxide anion release with phorbol--12,13-myristate acetate (PMA) in a dose-dependent manner. […]

[1] = test system: MCF-7 human breast tumor cell line; assay: Human Tumor Cell Growth Inhibition (3H-thymidine incorporation); assay type: cell-based
Method: MCF-7 a human breast tumor cell line was obtained from the National Cancer Institute, Frederick, Md. Tumor cells were trypsinized with 0.05% trypsin obtained from GIBCO (Grand Island Biological Co. Laboratories, Grand Island, N.Y.), counted with a hemacytometer and seeded at a concentration of 7,500 cells/well in a 96 well microtiter plate and allowed to attach to the surface overnight. To determine a concentration response, test agents were serially diluted an […] added at 2× final concentration to quadruplicate cultures to bring the total volume of each well to […]. The microtiter plate was then incubated at 37° C., 5% CO2 for 24 hrs with ^3 H-thymidine added at a concentration of 0.5 mCi/well in […] of 0.05% trypsin (GIBCO) was added to each well. Cells were checked microscopically to determine detachment from surfaces, and plates were harvested with a cell harvester (PHD, Cambridge Technology, Inc.). Filter paper corresponding to wells were placed in scintillation vials and counted to determine the amount ^3 H-thymidine incorporated by the cells. Counts per minute (CPM) of quadruplicate cultures were averaged and a percent of control calculated for each test agent concentration by the following formula: [formula]
The IC50 or concentration necessary to inhibit the proliferation of cells by 50% compared to control, of each test agent was determined by plotting % control vs log concentration for each dilution and then linear forecasting the 50% control value onto the X axis on a Quattro Pro computer program. Only regression values with a correlation coefficient greater then 0.9 were considered acceptable.

PKC isoenzyme δ = biological target: T1, PKC isoenzyme δ (Homo sapiens, UniProt Q05655); assay: Protein kinase C inhibition assay, PKC isoenzyme δ; assay type: biochemical
T1 construct: made in house; host or cells: baculovirus-insect cell expression system
T1 sequence (Q05655 whole entry): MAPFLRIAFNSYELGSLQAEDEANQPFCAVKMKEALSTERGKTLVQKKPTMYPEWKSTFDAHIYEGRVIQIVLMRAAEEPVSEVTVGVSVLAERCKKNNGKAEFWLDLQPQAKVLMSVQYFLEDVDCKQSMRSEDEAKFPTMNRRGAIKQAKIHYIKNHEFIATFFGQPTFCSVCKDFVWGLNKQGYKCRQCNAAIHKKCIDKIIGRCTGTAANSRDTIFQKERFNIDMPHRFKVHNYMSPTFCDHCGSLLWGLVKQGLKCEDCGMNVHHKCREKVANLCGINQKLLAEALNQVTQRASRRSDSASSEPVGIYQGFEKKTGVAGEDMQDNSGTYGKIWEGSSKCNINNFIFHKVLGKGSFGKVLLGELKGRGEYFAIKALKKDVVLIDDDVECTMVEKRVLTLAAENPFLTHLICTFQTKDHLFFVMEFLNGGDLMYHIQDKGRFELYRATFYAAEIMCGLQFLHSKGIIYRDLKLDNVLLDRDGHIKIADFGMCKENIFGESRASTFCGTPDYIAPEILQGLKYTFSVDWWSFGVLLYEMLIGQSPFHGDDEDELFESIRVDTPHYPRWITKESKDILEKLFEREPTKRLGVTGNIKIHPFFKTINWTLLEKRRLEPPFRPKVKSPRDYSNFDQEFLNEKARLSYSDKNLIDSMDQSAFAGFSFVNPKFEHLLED
Method: A protein kinase C (PKC) assay is designed to duplicate the in vivo conditions required for protein kinase C function. Therefore, pH, salt and cofactor concentrations are similar to physiologic levels. Either lysine rich histone H1 (H1) or Myelin basic protein (Mbp) are used in the assay as the phosphorylation acceptor-protein because they are readily available and serve as good substrates for protein kinase C. Enzyme was prepared from baculovirus-insect cell expression systems.
In the screening assay, phosphatidylserine (PS) and DAG were co-sonicated to form unilamellar and multilamellar vesicles. The concentration of lipids in the assay were suboptimal to maximize the detection potential of the assay for inhibitors or activators. Potential effector compounds were added to the assay in dimethylsulfoxide at four concentrations to give final inhibitor concentrations of 1, 10, 50, and 150 μM, respectively.
The assay was started with the addition of enzyme and stopped after 10 min by the addition of 25% trichloroacetic acid (TCA) and 1.0 mg/ml bovine serum albumin (BSA). The radioactive histone product was retained and washed on glass fiber filters that allow the unreacted P-ATP to pass through. The amount of phosphorylation was determined by measuring radioactivity with a scintillation counter. Controls were included in every assay to measure background activity in the absence of enzyme, activity in the absence of lipids, and the maximum enzyme activity with saturating levels of the activator lipids.
Results of the protein kinase C assay are shown in Table 4 in columns labeled α, βII, γ, δ, ε, and .zeta. which represent various PKC isoenzymes. Results are show as IC50, which is the concentration of test compound needed to inhibit 50% of the protein kinase C activity in controls.

[2] = Homo sapiens, MCF7, MCF-7, 24 hrs

IC50 (human neutrophils; Homo sapiens, Neutrophil) [nM] | IC50 [1, 2] [µM] | IC50 (PKC isoenzyme δ; read-out: IC50 PKC δ) [µM] | IC50 (human neutrophils) [nM] | IC50 ([1]; MCF-7, 24 hrs) [µM] | Structure (SMILES) | IC50 (PKC isoenzyme δ; IC50 PKC δ) [µM]
40 | 4.8 | 85 |  |  | Cc1cc(C)nc(NS(=O)(=O)c2cccc(N=C3C=C(Nc4cccc(S(=O)(=O)Nc5cc(C)cc(C)n5)c4)C(=O)c4ccccc43)c2)c1 [Compound 3ae] | 
60 | 0.83 | > 150 |  |  | COc1cc(NS(=O)(=O)c2ccc(N=C3C=C(Nc4ccc(S(=O)(=O)Nc5cc(OC)cc(OC)c5)cc4)C(=O)c4ccccc43)cc2)cc(OC)c1 [Compound 3af] | 
40 | 2.4 | 30 |  |  | Cc1cc(C)nc(NS(=O)(=O)c2cc(N=C3C=C(Nc4ccc(C)c(S(=O)(=O)Nc5cc(C)cc(C)n5)c4)C(=O)c4ccccc43)ccc2C)c1 [Compound 3ag] | 
8970 | 1.4 | > 150 |  |  | Cc1cc(C)nc(NC(=O)c2ccc(N=C3C=C(Nc4ccc(C(=O)Nc5cc(C)cc(C)n5)cc4)C(=O)c4ccccc43)cc2)c1 [Compound 3ah] | 
4020 | 0.03 | > 150 |  |  | Cc1cc(C)nc(NC(=O)c2ccc(N=C3C=C(Nc4ccc(C(=O)Nc5nc(C)cc(C)n5)cc4)C(=O)c4ccccc43)cc2)n1 [Compound 3ai] | 
7600 |  | 31 |  |  | Cc1noc(NS(=O)(=O)c2ccc(N=C3C=C(Nc4ccc(S(=O)(=O)Nc5onc(C)c5C)cc4)C(=O)c4ccccc43)cc2)c1C [Compound 3b] | 
 |  | 72 | 770 | 7.03 | Cc1cc(C)nc(NS(=O)(=O)c2ccc(N=C3C=C(Nc4ccc(S(=O)(=O)Nc5nc(C)cc(C)n5)cc4)C(=O)c4ccccc43)cc2)n1 [Compound 3c] | 
5850 | 17.2 | 95 |  |  | Cc1cc(NS(=O)(=O)c2ccc(N=C3C=C(Nc4ccc(S(=O)(=O)Nc5cc(C)nc(C)n5)cc4)C(=O)c4ccccc43)cc2)nc(C)n1 [Compound 3d] | 
8380 |  | 43 |  |  | Cc1nnc(NS(=O)(=O)c2ccc(N=C3C=C(Nc4ccc(S(=O)(=O)Nc5nnc(C)s5)cc4)C(=O)c4ccccc43)cc2)s1 [Compound 3e] | 
2510 | 16.6 | 86 |  |  | Cc1ccnc(NS(=O)(=O)c2ccc(N=C3C=C(Nc4ccc(S(=O)(=O)Nc5nccc(C)n5)cc4)C(=O)c4ccccc43)cc2)n1 [Compound 3f] | 
 | 16.5 | 40 | 2750 |  | COc1cc(NS(=O)(=O)c2ccc(N=C3C=C(Nc4ccc(S(=O)(=O)Nc5cc(OC)nc(OC)n5)cc4)C(=O)c4ccccc43)cc2)nc(OC)n1 [Compound 3g] | 
 | 12.2 | 58 | 8700 |  | COc1cnc(NS(=O)(=O)c2ccc(N=C3C=C(Nc4ccc(S(=O)(=O)Nc5ncc(OC)cn5)cc4)C(=O)c4ccccc43)cc2)nc1 [Compound 3h] | 
100 | 13.8 | 37 |  |  | O=C1C(Nc2ccc(S(=O)(=O)Nc3ccccn3)cc2)=CC(=Nc2ccc(S(=O)(=O)Nc3ccccn3)cc2)c2ccccc21 [Compound 3i] | 
1740 | 16.1 | 17 |  |  | COc1ccc(NS(=O)(=O)c2ccc(N=C3C=C(Nc4ccc(S(=O)(=O)Nc5ccc(OC)nn5)cc4)C(=O)c4ccccc43)cc2)nn1 [Compound 3j] | 
 |  | 78 | 900 |  | O=C1C(Nc2ccc(S(=O)(=O)Nc3ccc(Cl)nn3)cc2)=CC(=Nc2ccc(S(=O)(=O)Nc3ccc(Cl)nn3)cc2)c2ccccc21 [Compound 3l] | 
1310 | 17.9 | 122 |  |  | O=C1C(Nc2ccc(S(=O)(=O)Nc3cnc4ccccc4n3)cc2)=CC(=Nc2ccc(S(=O)(=O)Nc3cnc4ccccc4n3)cc2)c2ccccc21 [Compound 3m] | 
 | 1.02 | > 150 | 220 |  | O=C1C(Nc2ccc(S(=O)(=O)NCc3ccccn3)cc2)=CC(=Nc2ccc(S(=O)(=O)NCc3ccccn3)cc2)c2ccccc21 [Compound 3n] | 
 |  | 34 | 8000 |  | Cc1cc(NS(=O)(=O)c2ccc(N=C3C=C(Nc4ccc(S(=O)(=O)Nc5cc(C)on5)cc4)C(=O)c4ccccc43)cc2)no1 [Compound 6a] | 
 |  |  | 70 | 1.2 | COc1cc(NS(=O)(=O)c2ccc(N=C3C=C(Nc4ccc(S(=O)(=O)Nc5cc(OC)cc(OC)c5)cc4)C(=O)c4ccccc43)cc2)cc(OC)c1 [Compound 6af] | 
 |  | 49 | 60 | 1.8 | Cc1cc(C)nc(NS(=O)(=O)c2cc(N=C3C=C(Nc4ccc(C)c(S(=O)(=O)Nc5cc(C)cc(C)n5)c4)C(=O)c4ccccc43)ccc2C)c1 [Compound 6ag] | 
 |  | 35 | 4780 |  | Cc1nnc(NS(=O)(=O)c2ccc(N=C3C=C(Nc4ccc(S(=O)(=O)Nc5nnc(C)s5)cc4)C(=O)c4ccccc43)cc2)s1 [Compound 6e] | 
 |  | 50 | 5230 |  | O=C1C(Nc2ccc(S(=O)(=O)Nc3ccc(Cl)nn3)cc2)=CC(=Nc2ccc(S(=O)(=O)Nc3ccc(Cl)nn3)cc2)c2ccccc21 [Compound 6l] | 
 |  |  | 100 | 0.75 | O=C1C(Nc2ccc(S(=O)(=O)NCc3ccccn3)cc2)=CC(=Nc2ccc(S(=O)(=O)NCc3ccccn3)cc2)c2ccccc21 [Compound 6n] | 

Structure (SMILES) | IC50 (human neutrophils; Homo sapiens, Neutrophil) [nM] | IC50 [1, 2] [µM] | IC50 (PKC isoenzyme δ; read-out: IC50 PKC δ) [µM] | IC50 (human neutrophils) [nM] | IC50 ([1]; MCF-7, 24 hrs) [µM] | IC50 (PKC isoenzyme δ; IC50 PKC δ) [µM]
O=C1C(Nc2ccc(S(=O)(=O)NCCNc3ccc([N+](=O)[O-])cn3)cc2)=CC(=Nc2ccc(S(=O)(=O)NCCNc3ccc([N+](=O)[O-])cn3)cc2)c2ccccc21 [Compound 3ac] | 50 | 0.16 |  |  |  | 147
